PubChem BioAssay AID2060494 (Molecular Pharmacology Branch, DTP, NCI, 2025)

System: 435261-313-R-J1-PDC complex spheroid viability
Test: Anticancer human tumor 435261-313-R-J1-PDC patient-derived colon adenocarcinoma cell line growth inhibition [GQUAD]
Conditions: for IC50: curve of first compound; for viability, T/C: stronger effect = lower value
Excerpt: DNA G-quadruplex Stabilizer Agents in Combinations in Complex Spheroids
A high-throughput screen of multi-cell type tumor spheroids was designed to identify active combinations of DNA G-quadruplex stabilizer agents and targeted small molecules. Complex spheroids include a stromal component modeled by human endothelial cells (HUVEC) and fibroblasts modeled by human mesenchymal stem cells (MSCs). The concentration ranges selected for each drug and investigational agent were based upon clinically achievable concentrations if the clinical Cmax of the agent was known.
Compounds. The drugs and investigational agents: pidnarulex (CX-5461; NSC782164), APTO-253 (NSC789042), BRACO-19 (NSC847499), peposertib (NSC802822), ceralasertib (NSC780249), elimusertib (NSC800525), camonsertib (NSC841442), AZD-1390 (NSC803789), olaparib (NSC753686), talazoparib (NSC767125), ART-558 (NSC835418), sotorasib (NSC818433), MRTX-1133 (NSC836407), SN-38 (NSC673596), topotecan (NSC609699), etoposide (NSC141540), doxorubicin (NSC123127), gemcitabine (NSC613327), 5-fluorouracil (NSC19893), paclitaxel (NSC125973), vemurafenib (NSC761431), panobinostat (NSC761190), R-306465 (JNJ-16241199; NSC773264), adavosertib (NSC754352), TP-3654 (NSC805149), carboplatin (NSC241240), KSQ-4279 (NSC840948), and staurosporine (NSC755774) were obtained from the National Cancer Institute (NCI) Developmental Therapeutics Program Chemical Repository (34). The FDA-approved anticancer drug set is available from the NCI Developmental Therapeutics Program. […] The stock solutions were prepared in dimethyl sulfoxide (DMSO, Sigma-Aldrich, St. Louis, MO, cat. D2650) at 800-fold the tested concentration and stored at -70 degrees C prior to their use. All drugs and investigational agents were tested over a range starting from a high concentration at or near the clinical Cmax and decreasing in half-log increments. If the clinical Cmax for an agent had not been determined, the highest concentration tested was 10 microM.
2.3 Cell Culture. All cells were maintained in an incubator at 37 degrees C and 5% CO2 with 95% humidity. The PDC lines were cultured according to standard operating procedures established by the NCI PDMR. All PDCs were thawed and cultured in Matrigel-coated flasks prepared with a working solution of 1X Ham's F-12 nutrient mix, without supplementation (Invitrogen, cat. 11765054), 100 U/mL penicillin-streptomycin (Invitrogen, cat. 15140122), and 2.5% Matrigel (Corning Inc., cat. 354248) for the first three passages. The 857933-349-R-J2-PDC line was cultured in 6C/Colon 1B media, which includes advanced DMEM/F-12 (Thermo Fisher Scientific, cat. 12634028), 10 mM HEPES (Thermo Fisher Scientific, cat. 15630080), 1X GlutaMAX supplement (Thermo Fisher Scientific, cat. 35050061), 0.1 mg/mL primocin (InvivoGen, cat. ant-pm-2), 10% defined fetal bovine serum, heat inactivated (HyClone Laboratories Inc., cat. SH30070.03HI), 50% L-WRN conditioned media (ATCC, cat. CRL-3276), 1.25 mM N-Acetyl-L-cysteine (Sigma-Aldrich, cat. A9165), 10 mM nicotinamide (Sigma-Aldrich, cat. N0636), 1X B-27 supplement (Thermo Fisher Scientific, cat. 17504044), 1X N-2 supplement (Thermo Fisher Scientific, cat. 17502048), 10 microM Y-27632 dihydrochloride (Tocris Bioscience, cat. 1254), and 50 ng/mL human EGF recombinant protein (Thermo Fisher Scientific, cat. PHG0311). The 485176-168-R4-J1-PDC line was cultured in Panc media, which includes all 6C/Colon 1B media components plus 100 ng/mL human FGF-10 (Thermo Fisher Scientific, cat. 100-26), 500 nM SB-431542 (Selleckchem, cat. S1067), and gastrin (Tocris, cat. 3006).
[…]

[1] = second compound 0.0316 µM, first compound 0.0316 µM
[2] = second compound 0.0316 µM, first compound 0.1 µM
[3] = second compound 0.0316 µM, first compound 0.316 µM
[4] = second compound 0.0316 µM, first compound 1 µM
[5] = second compound 0.0316 µM, first compound 3.16 µM
[6] = second compound 0.0316 µM, first compound 10 µM
[7] = second compound 0.1 µM, first compound 0.0316 µM
[8] = second compound 0.1 µM, first compound 0.1 µM
[9] = second compound 0.1 µM, first compound 0.316 µM
[10] = second compound 0.1 µM, first compound 1 µM
[11] = second compound 0.1 µM, first compound 3.16 µM
[12] = second compound 0.1 µM, first compound 10 µM
[13] = second compound 0.316 µM, first compound 0.0316 µM
[14] = second compound 0.316 µM, first compound 0.1 µM
[15] = second compound 0.316 µM, first compound 0.316 µM
[16] = second compound 0.316 µM, first compound 1 µM
[17] = second compound 0.316 µM, first compound 3.16 µM
[18] = second compound 0.316 µM, first compound 10 µM
[19] = second compound 1 µM, first compound 0.0316 µM
[20] = second compound 1 µM, first compound 0.1 µM
[21] = second compound 1 µM, first compound 0.316 µM
[22] = second compound 1 µM, first compound 1 µM
[23] = second compound 1 µM, first compound 3.16 µM
[24] = second compound 1 µM, first compound 10 µM
[25] = second compound 3.16 µM, first compound 0.0316 µM
[26] = second compound 3.16 µM, first compound 0.1 µM
[27] = second compound 3.16 µM, first compound 0.316 µM
[28] = second compound 3.16 µM, first compound 1 µM
[29] = second compound 3.16 µM, first compound 3.16 µM
[30] = second compound 3.16 µM, first compound 10 µM
[31] = second compound 10 µM, first compound 0.0316 µM
[32] = second compound 10 µM, first compound 0.1 µM
[33] = second compound 10 µM, first compound 0.316 µM
[34] = second compound 10 µM, first compound 1 µM
[35] = second compound 10 µM, first compound 3.16 µM
[36] = second compound 10 µM, first compound 10 µM
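Further: spheroids exposed to the agents for seven days before readout.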
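Wherever viability, T/C is given: percent of vehicle control viability with DMSO wells as 100%.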

SMILES: COc1cc(C2c3cc4c(cc3C(OC3OC5COC(C)OC5C(O)C3O)C3COC(=O)C23)OCO4)cc(OC)c1O (centres undefined) + CN(C)c1ccc(Nc2c3ccc(NC(=O)CCN4CCCC4)cc3nc3cc(NC(=O)CCN4CCCC4)ccc23)cc1
- IC50 (second compound 0.0316 µM): > 10000 nM
- IC50 (second compound 0.1 µM): > 10000 nM
- IC50 (second compound 0.316 µM): > 10000 nM
- IC50 (second compound 1 µM): > 10000 nM
- IC50 (second compound 3.16 µM): > 10000 nM
- IC50 (second compound 10 µM): 70.4 nM
- viability, T/C [1]: 93.5%
- viability, T/C [2]: 117%
- viability, T/C [3]: 77.8%
- viability, T/C [4]: 74.4%
- viability, T/C [5]: 75.9%
- viability, T/C [6]: 61.2%
- viability, T/C [7]: 81.8%
- viability, T/C [8]: 87.3%
- viability, T/C [9]: 74.8%
- viability, T/C [10]: 80.7%
- viability, T/C [11]: 82.1%
- viability, T/C [12]: 74.1%
- viability, T/C [13]: 100%
- viability, T/C [14]: 95.2%
- viability, T/C [15]: 65.1%
- viability, T/C [16]: 71%
- viability, T/C [17]: 91.6%
- viability, T/C [18]: 74.4%
- viability, T/C [19]: 78.9%
- viability, T/C [20]: 91.4%
- viability, T/C [21]: 74.3%
- viability, T/C [22]: 76.4%
- viability, T/C [23]: 71.1%
- viability, T/C [24]: 57.1%
- viability, T/C [25]: 62.6%
- viability, T/C [26]: 69.2%
- viability, T/C [27]: 65.5%
- viability, T/C [28]: 55.2%
- viability, T/C [29]: 62.4%
- viability, T/C [30]: 45.7%
- viability, T/C [31]: 63%
- viability, T/C [32]: 42.4%
- viability, T/C [33]: 37.9%
- viability, T/C [34]: 29%
- viability, T/C [35]: 27.1%
- viability, T/C [36]: 26.4%

SMILES: COc1ccc([C@@H](O)c2cc(-c3ncnc4cc(N5CCOCC5)ccc34)c(F)cc2Cl)nn1 + CN(C)c1ccc(Nc2c3ccc(NC(=O)CCN4CCCC4)cc3nc3cc(NC(=O)CCN4CCCC4)ccc23)cc1
- IC50 (second compound 0.0316 µM): 4190 nM
- IC50 (second compound 0.1 µM): 4300 nM
- IC50 (second compound 0.316 µM): 2380 nM
- IC50 (second compound 1 µM): 2270 nM
- IC50 (second compound 3.16 µM): 451 nM
- IC50 (second compound 10 µM): 134 nM
- viability, T/C [1]: 99%
- viability, T/C [2]: 120%
- viability, T/C [3]: 108%
- viability, T/C [4]: 83.9%
- viability, T/C [5]: 56.6%
- viability, T/C [6]: 35.8%
- viability, T/C [7]: 107%
- viability, T/C [8]: 100%
- viability, T/C [9]: 85.3%
- viability, T/C [10]: 68.9%
- viability, T/C [11]: 57.9%
- viability, T/C [12]: 35.5%
- viability, T/C [13]: 94.3%
- viability, T/C [14]: 137%
- viability, T/C [15]: 79.7%
- viability, T/C [16]: 63.9%
- viability, T/C [17]: 55.3%
- viability, T/C [18]: 26.7%
- viability, T/C [19]: 72%
- viability, T/C [20]: 76.4%
- viability, T/C [21]: 70.9%
- viability, T/C [22]: 64.5%
- viability, T/C [23]: 44.2%
- viability, T/C [24]: 23.9%
- viability, T/C [25]: 59.7%
- viability, T/C [26]: 48%
- viability, T/C [27]: 69%
- viability, T/C [28]: 30%
- viability, T/C [29]: 24.6%
- viability, T/C [30]: 11.5%
- viability, T/C [31]: 56.1%
- viability, T/C [32]: 59.8%
- viability, T/C [33]: 26.9%
- viability, T/C [34]: 14.7%
- viability, T/C [35]: 8.59%
- viability, T/C [36]: 5.21%
